# Experimental data reported in patent publication US4228274A, “1-Substituted glycopyranosides” (Merck & Co., Inc., priority 1978, dated 1980).
# Several values for one entry are separate records, joined by “and”; a condition that tells them apart may be missing. Identical values can stand only once.
# Columns and labels:
# [1] = system: fat cells (isolated adipose cells); assay: In Vitro Fat Cell Bioassay (insulin-like activity, conversion of glucose-1-14C to 14CO2); assay type: cell-based; settings: for 14-CO2: average CPM, baseline not subtracted, repeat lines are separate runs
# Experimental: It is known that fat cells incubated in Krebs-Ringer bicarbonate buffer containing glucose and albumin convert glucose-1-^14 C to ^14 CO2. […] This is the basis of the bioassay of insulin-like activity described in J. Gliemann, Diabetes, 14, 643(1965). The method for preparing the necessary isolated adipose cells retaining their metabolic activity is described in M. Rodbell, J. Biol. Chem., 239, 375(1964).
# The compounds of the present invention have been bioassayed for their insulin-like activity essentially by the process set forth in Gliemann and Rodbell.
# *All compounds were tested at 100 μg./ml.
# **Insulin standard at 25 μu/ml.
# 1. An average CPM value is taken of each group.
# 2. The average value of Baseline (Buffer control) is subtracted from the
# average of each of the remaining groups.
# 3. In order to obtain Relative Activity percentage, the average CPM value
# for each compound (minus the average CPM value of the control group) is
# divided by the average CPM value in the insulin standard (minus the
# average CPM value of the controls), and the resultant value multiplied by
# 100 to obtain % activity.
# [2] = system: fat cells (isolated adipose cells); settings: fat cells in Krebs-Ringer bicarbonate buffer containing glucose and albumin; known from Gliemann; cited from earlier work
# [3] = compounds tested at 100 μg./ml, baseline subtracted, relative to insulin standard 25 μu/ml = 100%
Compound,14-CO2 ([1]; compounds tested at 100 μg./ml),"activity at 100 µg/mL [1, 3] [%]","Relative Activity % [1, 3] [%]","Relative Activity % ([1]; Insulin standard at 25 μu/ml, reference set to 100%) [%]",stimulation of 14CO2 production [2]
"NCCCCCCO[C@H]1O[C@H](CO)[C@@H](O)[C@H](O)[C@@H]1O [1-(6-aminohexyl) α-D-mannopyranoside, 1-(6-aminohexyl)-α-D-mannopyranoside]",3330 cpm,28,,,
NCCCCCCS[C@@H]1O[C@H](CO)[C@@H](O)[C@H](O)[C@@H]1O [1-[(6-aminohexyl)thio]-1-deoxy-β-D-mannopyranoside],4898 cpm and 5177 cpm,93,78,,
NCCCCCCC(=O)N[C@@H]1O[C@H](CO)[C@@H](O)[C@H](O)[C@@H]1O [1-[(7-aminoheptanoyl)amino]-1-deoxy-β-D-mannopyranoside],1952 cpm,26,,,
Insulin: Insulin standard at 25 μu/ml,,,,100,stimulation of severalfold
